Results taken from paper PMC12598616, “Design and optimization of caspase-1-responsive fluorescent probes for pyroptosis imaging and anti-pyroptosis drug screening” (Chemical Science, 2025).

Target: T1, caspase-1 (Homo sapiens, UniProt P29466)
T1 sequence (P29466 120-297 limits assumed): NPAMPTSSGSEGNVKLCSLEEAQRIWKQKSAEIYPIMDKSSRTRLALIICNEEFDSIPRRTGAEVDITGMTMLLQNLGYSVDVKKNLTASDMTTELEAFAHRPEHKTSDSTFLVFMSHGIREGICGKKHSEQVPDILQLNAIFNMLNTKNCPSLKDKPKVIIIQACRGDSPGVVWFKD
T1 sequence (P29466 317-404 limits assumed): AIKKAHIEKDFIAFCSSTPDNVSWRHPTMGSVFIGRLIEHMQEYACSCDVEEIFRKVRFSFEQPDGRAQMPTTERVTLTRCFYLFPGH
Assay: Reaction time of probes for caspase-1
Assay type: biochemical
Conditions: probe 5 μM, Cas-1 2 U/mL, assay buffer, 37 °C
Experimental: The spectral and chemical properties of all probes were then evaluated. Upon interaction with Cas-1, the specific peptide of the probes is cleaved, leading to the disruption of the FRET process in the system and the recovery of donor fluorescence (Fig. 2a). Prior to fluorescence detection, the UV-vis absorption spectra of the probes were acquired. […] Subsequently, the sensitivity of the probes towards Cas-1 was measured in HEPES buffer (50 mM HEPES, 50 mM NaCl, 0.1% chaps, 5% glycerol, 10 mM DTT, 10 mM EDTA). […] The response differences among the probes were more intuitively observed by analyzing the standard curves of fluorescence intensity at 585 nm against the concentration of Cas-1 (Fig. 2b). […] The reaction kinetics of the probes were also measured by monitoring the fluorescence intensity of FPy1, YPy1 and WPy1 (0.5–4 μM) following incubation with Cas-1 (2 U mL^−1) (Fig. S3a–f). […] The reaction time of the probes was also investigated by monitoring the fluorescence spectra of the probes (5 μM) incubated with Cas-1 (2 U mL^−1) at various time intervals (Fig. S4a–c). […] Finally, the selectivity of the probes was evaluated. […]
To investigate the sensitivity of the probes for caspase-1, varying concentration of caspase-1 (0, 0.2, 0.4, 0.6, 0.8, 1.0, 1.25, 1.5, 1.75, 2, 2.5, 3 U/mL) were incubated with FPy1 (5 μM), YPy1 (5 μM) and WPy1 (5 μM) respectively in caspase-1 assay buffer (50 mM HEPES, 50 mM NaCl, 0.1 % chaps, 5 % glycerol, 10 mM DTT, 10 mM EDTA) at 37 °C for 2 hours. Fluorescence spectra were recorded using Hitachi F-2700 spectrophotometer with an excitation at 510 nm (Photomultiplier voltage 700 V; Slit widths ex: 10 nm and em =5.0 nm). The fluorescence intensity of FPy1, YPy1 and WPy1 at 585 nm were plotted against the concentration of caspase-1, and a linear regression fitted from the corresponding concentration of caspase-1, and linear regression was applied to determine the slope k. The limit of detection (LoD) was calculated from 3σ/k, in which σ represents the standard deviation of 15 blank measurements. […]

–FLTDG– [FPy1, RhoB donor, hNR quencher]
time to maximum fluorescence intensity at 585 nm (reaction time): ≤ 40 min

–YVADG– [YPy1, caspase-1-responsive FRET probe with recognition peptide –YVADG–; RhoB donor, hNR quencher]
time to maximum fluorescence intensity at 585 nm (reaction time): 60 min
